Like-named read-outs stand apart in the source and are kept apart here.
Assays:
[1] = system: MCF7 Adr 10; assay: 72 hour MTT proliferation assay, reversal of drug resistance in MCF7 Adr 10; assay type: cell-based, human; conditions: [1c] 0 μM
Method: In 72 hour MTT proliferation assays using the following method, compounds 1b, 1c and 1d were assessed for inhibition of Vinca alkaloid and anthracycline drug resistance in MDR MCF7. Additionally, compounds 1b and 1c were assessed for potentiation of sensitivity to Vinca alkaloid and anthracycline drugs in the parental MCF7 WT cell line.
METHOD: 5000 cells per well were plated in 100 μl of IMDM containing 10% FCS and allowed to adhere overnight. The following day the cells were treated with N-substituted 1,4-diaminoanthraquinones and exposed to graded concentrations of antineoplastic agents. 50 μl of IMDM 10% FCS containing either vehicle or N-substituted 1,4-diaminoanthraquinones at 3 times the final tested concentration was added to cells at timed intervals. The plates were incubated for 2 hours at 37° C. to allow maximal cellular accumulation of N-substituted 1,4-diaminoanthraquinones. 40 μl aliquots of IMDM 10% FCS containing either vehicle or graded concentrations of antineoplastic drugs at 5 times the final concentration were added to treatment groups. Following this addition, 10 μl of IMDM 10% FCS containing either vehicle or N-substituted 1,4-diaminoanthraquinone at 5 times the final concentration was added to each group of wells. The cells were incubated for 72 hours after treatment. At this time the viable cells in each treatment group were estimated in a colorimetric assay by adding MTT and incubating the cells at 37° C. for 3-4 hours. The media in each well was aspirated and MTT formazan was solubilized in isopropyl alcohol acidified with 0.1 N HCl. The absorbance of the solubilized formazan was quantitated using a plate reader spectrophotometer. […] The concentrations of antineoplastic drugs which inhibited proliferation by 50% (IC50's) were estimated by calculating a percentage from the ratio: antineoplastic drug treated groups/control group absorbance and plotting the dose response curve on semilog paper. The IC50 was estimated from this curve. To assess the effects of inhibition of resistance by N-substituted 1,4-diaminoanthraquinones, the percentages were calculated relative to cell groups treated with resistance modifier alone and IC50's calculated as above. A reversal factor was calculated by dividing the IC50 to the antineoplastic drug alone (Control group) by the IC50 to antineoplastic drug in cells treated with resistance modifier.

[2] = system: MCF7 WT; assay: Tumor cell clonogenic assay, MCF7 WT; assay type: cell-based, human; conditions: Homo sapiens
Method: The tumor cell clonogenic assays measure clonal proliferation of tumor cells. In this assay, 300-500 cells are plated in 10 cm^2 wells, allowed to adhere overnight, and are treated the following day. Tumor cell colonies were counted after 10-12 days of culture. […] The IC50's are calculated as described above for the MTT proliferation assays.

[3] = system: granulocyte-macrophage progenitors (CFU-GM); assay: in vitro; conditions: for IC50: Homo sapiens, CFU-GM, read-out: Continuous Exposure IC50, CFU-GM
Method: (§1) Myelosuppression is often a dose limiting side effect of chemotherapeutic agents. […] The toxicities to human granulocyte-macrophage progenitors (CFU-GM) of 1b, 1c, and VLB was assessed by measuring inhibition of CFU-GM proliferation in cultures continuously exposed to each agent alone and compared to the toxicities to sensitive and resistant MCF7 in tumor cell clonogenic assays.
(§2) METHOD: The CFLI-GM assay measures clonal proliferation of granulocyte/macrophage precursors in semisolid agar cultures. The progeny of the granulocyte/macrophage precursors remain in proximity of the progenitor cells and form colonies. Colonies which contain greater than 40 cells after 10-12 days of culture are counted using an inverted phase contrast microscope. The tumor cell clonogenic assays measure clonal proliferation of tumor cells. In this assay, 300-500 cells are plated in 10 cm^2 wells, allowed to adhere overnight, and are treated the following day. Tumor cell colonies were counted after 10-12 days of culture. The times of exposure in these experiments are similar; however, the concentrations of FCS are 20% in the CFU-GM assay and 10% in the tumor cell clonogenic assays. The IC50's are calculated as described above for the MTT proliferation assays. (See Example 4).
(§3) To facilitate this comparison, a CFLI-GM toxicity index was calculated by dividing the CFU-GM IC50 by the respective tumor cell clonogenic IC50's in sensitive and resistant cells.

[4] = in vitro; conditions: human
Method: as §1, §2, §3

[5] = target: P-glycoprotein in MCF7 Adr 10 membrane vesicles (Homo sapiens, UniProt P08183); conditions: MCF7 Adr 10 vesicles
Sequence of P-glycoprotein in MCF7 Adr 10 membrane vesicles (P08183 whole entry): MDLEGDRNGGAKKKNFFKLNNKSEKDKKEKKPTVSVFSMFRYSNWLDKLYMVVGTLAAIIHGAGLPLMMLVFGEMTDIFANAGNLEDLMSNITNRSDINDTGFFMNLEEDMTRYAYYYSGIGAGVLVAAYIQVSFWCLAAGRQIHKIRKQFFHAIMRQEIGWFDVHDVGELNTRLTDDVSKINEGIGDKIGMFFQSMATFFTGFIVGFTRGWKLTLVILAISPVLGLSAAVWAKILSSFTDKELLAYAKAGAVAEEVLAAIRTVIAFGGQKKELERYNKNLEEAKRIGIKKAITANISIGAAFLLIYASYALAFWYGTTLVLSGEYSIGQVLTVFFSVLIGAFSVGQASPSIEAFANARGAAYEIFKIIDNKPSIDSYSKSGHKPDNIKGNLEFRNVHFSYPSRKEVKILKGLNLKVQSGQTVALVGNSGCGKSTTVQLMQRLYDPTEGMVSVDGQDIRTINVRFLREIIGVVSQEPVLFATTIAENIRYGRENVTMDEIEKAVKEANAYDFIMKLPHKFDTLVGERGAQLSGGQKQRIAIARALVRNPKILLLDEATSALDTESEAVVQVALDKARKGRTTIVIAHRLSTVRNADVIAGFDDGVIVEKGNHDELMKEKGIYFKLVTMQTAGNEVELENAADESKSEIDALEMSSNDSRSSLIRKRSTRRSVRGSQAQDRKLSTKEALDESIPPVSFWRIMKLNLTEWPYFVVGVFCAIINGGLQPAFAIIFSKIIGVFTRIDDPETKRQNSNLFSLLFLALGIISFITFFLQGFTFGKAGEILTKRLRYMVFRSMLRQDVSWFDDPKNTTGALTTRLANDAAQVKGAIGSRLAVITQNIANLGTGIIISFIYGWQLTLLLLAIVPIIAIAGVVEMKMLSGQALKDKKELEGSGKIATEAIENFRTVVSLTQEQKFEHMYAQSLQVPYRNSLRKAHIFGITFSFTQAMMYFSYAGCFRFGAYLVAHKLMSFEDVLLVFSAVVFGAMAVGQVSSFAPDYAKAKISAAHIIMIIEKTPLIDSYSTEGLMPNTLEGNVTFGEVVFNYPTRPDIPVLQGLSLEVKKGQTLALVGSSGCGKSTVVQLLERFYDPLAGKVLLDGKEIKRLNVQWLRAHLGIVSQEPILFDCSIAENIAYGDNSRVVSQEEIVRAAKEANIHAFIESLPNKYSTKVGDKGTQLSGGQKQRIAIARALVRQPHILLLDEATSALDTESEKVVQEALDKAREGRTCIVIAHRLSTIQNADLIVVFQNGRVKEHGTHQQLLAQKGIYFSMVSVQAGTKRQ

[6] = system: MCF7 Adr 10; assay: Tumor cell clonogenic assay, MCF7 ADR 10; assay type: cell-based, human; conditions: for IC50: Homo sapiens, NCI/ADR-RES, read-out: Continuous Exposure IC50, MCF7 ADR 10
[7] = system: renal cell carcinoma cell lines, A704, SKRC7 and UOK-39
[8] = system: P-glycoprotein; conditions: cited from earlier work
[9] = system: P-glycoprotein; conditions: intact MDR cells and MDR membrane vesicles; cited from earlier work
[10] = system: MDR cell lines; conditions: literature; cited from earlier work
[11] = clinical trials; cited from earlier work
[12] = system: MCF7 Adr 10 human breast cancer cells; assay: Time course of accumulation of anthraquinones in cells; assay type: cell-based; conditions: 25 μM, 37° C., MCF7 Adr 10 cells
Method: (§4) METHOD: Near confluent monolayers of MCF7 ADR 10 were washed 2 times with Dulbecco's Phosphate Buffered Saline (DPBS) and 1 ml of Iscove's Modified Dulbecco's Medium (IMDM) was added to each well. The monolayers were treated with 25 μM 1b or 1c and incubated at 37° C. After incubating the samples for the times indicated in FIG. 1, the monolayers were washed three times with DPBS and detached using 1 ml of Trypsin-EDTA.An aliquot of the cell suspension was counted using a Coulter Counter and a 0.8 ml aliquot was extracted in a Bligh-Dyer extraction (Bligh et at., Can. J. Biochem. 31:911-916 (1959)). The absorbance of the lower chloroform phase was measured at 648 nm and 600 nm using a spectrophotometer. The amount of 1b or 1c present in the extract was quantitated from a standard curve performed in cell extracts. The data is expressed as nmol anthraquinone/10^6 cells.

[13] = system: PKC; assay: Micellar PKC screening assay; assay type: biochemical
Excerpt: The N-substituted diaminoanthraquinone, 1b, (1,4-bis-[[3'-(diethylamino)propyl]amino]anthraquinone), was identified as a PKC inhibitor in the micellar PKC screening assay and in platelets. […] Spectrophotometric analysis of 1b and lc indicated they were excellent chromophores with absorbance maxima at 648 and 600 nm in chloroform, respectively, and extinction coefficients of approximately 20,000. At these wavelengths, there was minimal absorbance by cellular components contained in the chloroform phase. These properties of 1b and 1c were utilized to determine the time course of accumulation of these compounds in MDR MCF7 Adr 10 cells.
The activities of 1a, 1b, 1c and 1d and mitoxantrone, an anthraquinone antineoplastic drug, were evaluated in vinblastine drug accumulation assays performed by the following method. […] Mitoxantrone was identified as a PKC inhibitor in miceliar PKC assays. Compound 1d (1,4-bis-[[2-(4-morpholino)ethyl]amino]anthraquinone) was only evaluated in cellular studies.

[14] = Partition in Bligh-Dyer extracts; assay type: physicochemical; conditions: Bligh-Dyer extracts of treated cells
Method: as §4, with “At these wavelengths, there was minimal absorbance by cellular components contained in the chloroform phase. […] METHOD:” for “METHOD:”, “Near confluent monolayers of MCF7 ADR 10 were washed 2 times with Dulbecco's Phosphate Buffered Saline (DPBS) and 1 ml of Iscove's Modified Dulbecco's Medium (IMDM) was added to each well.” left out

[15] = system: MCF7 Adr 10 human breast cancer cells; assay: Vinblastine accumulation assay, MCF7 Adr 10; assay type: cell-based
Method: [^3 H] vinblastine ([^3 H] VLB) was added to a final concentration of 100 nM and the cells were incubated for 2.5 hours. At this time, the cells were washed 3 times in ice cold PBS and lysed in buffer containing 0.1% Triton X-100. Net accumulation of [^3 H] vinblastine was expressed as pmol/mg protein. In [^3 H]

[16] = system: PKC; assay: PKC inhibition in platelets; assay type: cell-based
[17] = system: intrinsically resistant renal cell carcinoma cell lines; conditions: cited from earlier work
[18] = system: patients; conditions: human, in vivo; cited from earlier work
[19] = cfu-gm vs mcf7, CFU-GM toxicity indices

Q: For `CC[C@]1(O)C[C@@H]2CN(CCc3c([nH]c4ccccc34)[C@@](C(=O)OC)(c3cc4c(cc3OC)N(C)[C@H]3[C@@](O)(C(=O)OC)[C@H](OC(C)=O)[C@]5(CC)C=CCN6CC[C@]43[C@@H]65)C2)C1` [VLB, reference compound], which IC50 ([1]; Homo sapiens, NCI/ADR-RES, average ± SD of 3 experiments, read-out: VLB IC50) is on record?
A: The IC50 was 790 nM.

Q: And the “Reversal Factor (VLB)” value [1]?
A: The value was 1.0.

Q: What about the IC50 ([2]; MCF7, read-out: Continuous Exposure IC50, MCF7 WT) of the same molecule?
A: The IC50 was 0.59 nM.

Q: And the “toxicity to CFU-GM relative to drug sensitive WT cancer cells” value [3]?
A: Its value is “approximately twice as toxic to CFU-GM”.

Q: And the IC50 [3]?
A: Its IC50 is 0.28 nM.

Q: What about the selectivity ratio [4, 19] of the same molecule?
A: Its selectivity ratio is under 1.

Q: And the selectivity ratio ([4]; cfu-gm vs mcf7 adr 10, toxicity to CFU-GM relative to MDR cells)?
A: Its selectivity ratio is about 1000.

Q: What about the “effect of unlabeled VLB on [3H] VLB association” value [5] of the same molecule?
A: Its value is “inhibited by addition of unlabeled VLB”.

Q: And the IC50 [6]?
A: Its IC50 is 210 nM.

Q: And the “vinblastine IC50 in renal lines relative to vinblastine IC50 of sensitive MCF7” value [7]?
A: The value was 10-600 fold.

Q: Which results are given for Cyclosporin A?
A: inhibition of vincristine and vinblastine binding to P-glycoprotein [8]: competitively inhibits vincristine and vinblastine binding to the P-glycoprotein; [3H] azidopine photoaffinity labeling of P-glycoprotein [9]: inhibit

Q: What does the source list for `OCCN1CCN(CC/C=C2\c3ccccc3Sc3ccc(C(F)(F)F)cc32)CC1` [Trans-flupenthixol]?
A: drug accumulation and reversal of resistance in MDR cell lines [10]: increased doxorubicin accumulation and reversed the MDR phenotype more effectively in a number of MDR cell lines than verapamil; antipsychotic potency relative to the cis isomer [11]: much less potent antipsychotic in clinical trials than the cis isomer

Q: Which “time of maximal accumulation of 1b and 1c” value [12] does the source give for `CCN(CC)CCCNc1ccc(NCCCN(CC)CC)c2c1C(=O)c1ccccc1C2=O` [Compound 1b, 1,4-bis-[[3'-(diethylamino)propyl]amino]anthraquinone] here?
A: Its value is “about 2 hours”.

Q: What about the IC50 ([2]; MCF7, tumor cell clonogenic assay, 10-12 days, read-out: Continuous Exposure IC50, MCF7 WT) of the same molecule?
A: Its IC50 is 400 nM.

Q: And the IC50 [3]?
A: The IC50 was 1400 nM.

Q: And the “CFU-GM Toxicity Index (CFU-GM IC50 / Tumor Cell Clonogenic IC50)” value ([3]; human)?
A: The value was 2.0.

Q: What about the selectivity ratio ([4]; CFU-GM Toxicity Index (CFU-GM IC50 / Tumor Cell Clonogenic IC50)) of the same molecule?
A: Its selectivity ratio is 3.5.

Q: What about the selectivity ratio [4, 19] of the same molecule?
A: The selectivity ratio was over 1.

Q: What about the selectivity ratio ([4]; mcf7 vs cfu-gm, sensitivity of both tumor lines relative to CFU-GM) of the same molecule?
A: The selectivity ratio was 2 to 3.5.

Q: What about the “PKC activity in micellar PKC screening assay” value [13] of the same molecule?
A: The value was “PKC inhibitor”.

Q: What about the “blue color partitioning with cellular phospholipids in the lower chloroform phase” value [14] of the same molecule?
A: The value was over 95%.

Q: And the IC50 ([6]; tumor cell clonogenic assay, 10-12 days)?
A: The IC50 was 700 nM.

Q: And the “relative sensitivity of MCF7 WT and MDR MCF7 to cytotoxicity” value ([6]; clonogenic assays)?
A: Its value is “MCF7 WT are more sensitive to cytotoxicity of 1b than MDR MCF7”.

Q: What about the minimal effective concentration ([15]; Homo sapiens, NCI/ADR-RES, 100 nM [3H] VLB, 2.5 hours, FIGS. 2 and 3, read-out: lowest concentration which causes a doubling of basal accumulation of vinblastine) of the same molecule?
A: The minimal effective concentration was 25 µM.

Q: What about the “activity in vinblastine accumulation assay / drug accumulation” value ([15]; MDR MCF7) of the same molecule?
A: The value was “increase vinblastine accumulation in MDR MCF7”.

Q: What about the “drug accumulation relative to other PKC inhibitors” value ([15]; drug accumulation assays) of the same molecule?
A: Its value is “significantly greater activity in drug accumulation assays than other PKC inhibitors”.

Q: And the “PKC inhibition in platelets” value [16]?
A: The value was “PKC inhibitor”.

Q: For `CC/C(=C(\c1ccccc1)c1ccc(OCCN(C)C)cc1)c1ccccc1` [tamoxifen], which “drug accumulation and vinblastine resistance in renal cell carcinoma” value [17] is on record?
A: The value was “increase drug accumulation and decrease vinblastine resistance”.

Q: And the “drug accumulation and reversal of resistance in MDR cell lines” value [10]?
A: The value was “can also modulate resistance of estrogen receptor-negative MDR cell lines”.

Q: What about the toxicity in humans [18] of the same molecule?
A: The toxicity in humans was “minimal neurologic toxicity that was reversible with cessation of tamoxifen”.

Source: patent publication US5436243A, “Aminoanthraquinone derivatives to combat multidrug resistance” (priority 1993, dated 1995)
